Reference: patent US20250230244A1, “METHODS AND COMPOSITIONS COMPRISING B7-H3 BINDING POLYPETIDES” (BOARD OF REGENTS, THE UNIVERSITY OF TEXAS SYSTEM, priority 2021, published 2025)

Legend:
[1] = test system: AML cell lines (OCI-AML3, MV4-11, and U937); test: NK cell ADCC, annexin V binding, Incucyte, AML cell lines; type: cell-based, human
Protocol: For live-cell apoptosis analysis, the inventors stained OCI-AML3, MV4-11, U937, and primary cells with CytoLight Red (#4482; Essen BioScience). […] Time-lapse fluorescence imaging was performed using an Incucyte live-cell imaging system (Essen BioScience) to assess apoptosis induction every 1 hour for 20-48 hours. The apoptosis in leukemic cells was measured by green and red overlap counts.
Rituximab is a chimeric anti-CD20 antibody that was used as a non-specific control antibody. NK cell-induced apoptosis was measured by annexin V binding assay using the Incucyte live-cell imaging system. […] Representative images of OCI-AML3 cells undergoing apoptosis at different time points in different treatment conditions are shown in FIG. 12A.

[2] = test system: BC cell lines (MCF7 and HCC38); test: NK cell-mediated ADCC in breast cancer cell lines; type: cell-based, human; details: 10 μg/mL
From the text: Rituximab is a chimeric anti-CD20 antibody that was used as a nonspecific control antibody.

For rituximab [reference compound], the “apoptosis of leukemic cells (NK cell ADCC)” value ([1]; 1, 5, and 10 μg/mL, with NK cells, 8:1 ratio) was “did not show significant outcomes”, the “killing of leukemic cells, antibody alone, at 28 and 22 hours” value ([1]; antibody alone) was “no effect on killing leukemic cells” and the “apoptosis in BC cells (ADCC)” value ([2]; with NK cells, 15:1 NK-to-target cell ratio) was “did not show significant outcomes”. The “killing of BC cells, antibody alone, after 10 hours” value ([2]; without NK cells) was “did not affect the killing of BC cells”.
